The values that follow come from US10399931B2, “Octahydroanthracene compound, preparation method and application thereof” (SHANDONG XINHUA PHARMACEUTICAL CO., LTD., priority 2016, dated 2019).

Format in all cases: in vivo
Experiment [1] deals with Aβ metabolizing enzymes NEP and IDE. Briefly: Expression of Aβ metabolizing enzymes in the brain of APP/PS1 mice. The method, then: After the behavioral experiment, the animals were anesthetized with an intraperitoneal injection of 3.5% chloral hydrate and cut off the heads quickly to take out the brains. The hippocampus and cortex of the brain were separated on ice, and then weighed and quickly frozen with liquid nitrogen, placed in a refrigerator at −80° C. for standby application.
The tissue lysate (5 μL PMSF protease inhibitor per mL of lysate) was added to the frozen brain tissue at a ratio of […] (6 mL/g tissue), and ultrasonically homogenized in an ice bath. After homogenization, the tissue homogenate was placed in crushed ice for 30 min, and then centrifuged at 12,000×g for 20 min at 4° C. The supernatant (about 200 μL) was taken and stored in a refrigerator at −80° C. for later use. A portion of the supernatant was taken for protein quantification.
Grayscale scanning of the X film was performed and the results were analyzed by the image analysis software of Quantity One 4.6.2. Differences and changes in the expression of the detected proteins between the groups were determined using β-actin as an internal reference. The relative value was calculated by the formula.

Experiment [2] relates to APP/PS1 double transgenic AD model mice. Kind of experiment: Behavioral experiments (new object discrimination, Y-maze, Morris water maze, nesting, social interaction). Particulars: 14 days or 3 months. As for the experimental part:
The drugs were administered three days after the adaptive feeding. Peanut oil was used as the solvent. The drug was intragastric administered once a day for 15 days. On the 6th to 9th day after the administration, the new object identification test was performed. On the 10th day, the Y-maze test was performed. On the 11th to 15th day, the Morris water maze test was performed to determine the improvement of learning and memory. The administration of the drugs was continued during the behavioral experiment until the animals were sacrificed (16th day). The experimental device is a wooden square open field with a size of 50 cm×50 cm×15 cm. […] The mouse was placed back to the objects at equal distance from the two identical objects on the other side of the experimental device, and the time (tA1, tA2) used to explore the two objects within 5 minutes was recorded. After 1 h, A2 was replaced with a new object (B) and the mouse was placed in the test site again, the time (tA1, tB) used to explore the two objects was recorded. After 24 h, the object B was replaced with a new object (C), and the mouse was placed in the test site again, the time (tA1, tC) used to explore the two objects was recorded. […] The preferential index and the discrimination index of the new objects for each group of the experimental mice were calculated separately. […]

Experiment [3] has as its system APP/PS1 transgenic mice. Kind of experiment: Social interaction experiment. Particulars: 200 mg/kg. As for the experimental part:
The social interaction device was composed of a square box (length×width×height: 50 cm×50 cm×15 cm). The behavioral laboratory used diffuse and dim light (25 W) and tried to avoid environmental stress caused by shadows in the experimental area. Before the social interaction experiment, in order to eliminate the influence of unfamiliar environment, each mouse was placed in the experimental device alone to adapt to the environment, 10 min each day for two consecutive days. At the beginning of the test on day 3, the mouse was randomly paired with another strange partner. Two groups of experimental animals were placed in the experimental device at the same time, and the time spent by the mice in the active social interaction behavior was recorded. The test time was 10 min, including sniffing, combing, and scratching or chasing each other. However, passive contact activities (overwhelmed or being ridden by the other mouse, etc.) are not recorded in the social interaction behavior. After each test, 1% bromo geramine was used to disinfect the social interaction device.

The subject of experiment [4] is APP/PS1 transgenic mice. Briefly: Nesting experiment. An excerpt:
Each mouse was separately housed in a cage. On the first day of the test, two pieces of cotton (5 cm×5 cm) were placed in the cage. […]

The test system of experiment [5] is APP/PS1 mice. Kind of experiment: Patch clamp experiment, LTP (synaptic function).

Entries after “also recorded” stand apart in the source; their conditions may differ.

In the case of `CC1(C)CCC(C)(C)c2c1cc1c(c2NC(=O)c2ccc(NC(=O)NCCN)cc2)C(C)(C)CCC1(C)C` [OAB-14, 1-(2-amino) ethyl-3-{4-[(1,1,4,4,5,5,8,8-octamethyl-1,2,3,4,5,6,7,8-octahydro-9-anthryl)carbamoyl]phenyl} urea], in experiment [1], the “Expression of Aβ metabolizing enzymes NEP and IDE in the brain” value is “increasing the expression”. Besides, in experiment [2] (50, 100 and 200 mg/kg intragastric, 8-month-old APP/PS1 mice), the “Learning and memory disorders in new object discrimination, Y-maze, Morris water maze, nesting and social interaction tests” value is on record as “dose-dependently improve”. The “Behavioral effect of the high-dose group compared with donepezil and blank groups” value in experiment [2] (high-dose group) was “significantly stronger than that of the donepezil group and completely restored to the level of the blank control group; also recorded: significantly stronger than the donepezil group and completely recovered to the level of the blank group”. Further, in experiment [3], the “Active contact time vs model group” value is on record as “significantly increased”. Moreover, the “Nesting ability vs model group” value is recorded as “significantly increased” in experiment [4] (100 mg/kg, at 12 h); “significantly increased” in experiment [4] (200 mg/kg, at 6 h); “significantly increased” in experiment [4] (200 mg/kg, at 12 h); “significantly increased” in experiment [4] (200 mg/kg, at 24 h). Also, the LTP entry in experiment [5] (100 mg/kg group) and in experiment [5] (200 mg/kg group) was “significantly enhanced” throughout.
